The text below walks through data of US20040171093A1, “Methods for detecting deficient cellular membrane tightly bound magnesium for disease diagnoses” (priority 1999, published 2004).

Several values for one entry are separate records, joined by “and”; a condition that tells them apart may be missing. Equal values may be shown once. Entries after “also recorded” stand apart in the source; their conditions may differ. Ends that are not written are not given here. Some results are limits rather than exact numbers.

In experiment [1] the test system is magnesium deficient erythrocytes. The experiment is described as follows: Promotion of magnesium binding in magnesium depleted erythrocyte membranes (in vitro screen). The format is cell-based, human. As to conditions: for Magnesium Binding: aged Mg-deficient human erythrocytes incubated in 5 mL medium, 37° C., three hours, peptide amount equimolar to 6 ugm Substance P, quadruplet mean (n) or duplicate values; for measurable binding of magnesium ions to the erythrocyte membrane (in words): uptake in excess of that with KRPG alone; for activity relative to Substance P in promoting magnesium binding / correcting the MgBD: equal molar amounts tested; for approximate ratios of binding activities: magnesium uptake in excess of KRPG alone, normal plasma = 1. As for the experimental part:
In order to identify those substances which promote binding of magnesium ion to plasma membranes (tightly bound magnesium ion) and that ameliorate or correct the magnesium binding defect, a deficit of membrane tightly bound magnesium was created experimentally in erythrocytes without the magnesium binding defect. Human erythrocytes were obtained from blood samples that had been drawn two days previously and kept for varying periods of time at room temperature, or at approximately 5° C. Preferred results were obtained with those samples in which either sodium citrate or sodium heparin was the anticoagulant. The length of time held and time held before moving to room temperature or 5° C is not believed to be critical. Although it was possible to create the MgBD in cells held as above, more reproducible results would be expected if fresh drawn blood were to be used.
The following procedure was employed to generate a deficit of plasma membrane tightly bound magnesium ion in the erythrocytes. Art recognized adaptations of this procedure can be used for generation of a deficit in other somatic cells, such as from urine or buccal cells. Samples of blood described above were kept at room temperature overnight and then pooled in a beaker placed in crushed ice and the blood was stirred slowly to collect any fibrin that may have formed. The blood was then centrifuged (600×g, 15 minutes) at 5° C. and the plasma layer removed by aspiration. Residual plasma was removed from the cells by suspending them twice in equal volumes of cold normal saline and then twice in equal volumes of cold Alsever's solution (trisodium citrate 32.5 mM, citric acid 2.7mM, D-glucose 114 mM, NaCl 137 mM, pH 6.1). Finally, the washed cells were suspended again in an equal volume of the same Alsever's solution to which approximately 1.25 mg/ml of sodium deoxycholate was added. This suspension was filtered through cheese cloth and kept at 4° C. with gently mixing once each day. Although the Alsever's plus sodium deoxycholate solution is a preferred example of a holding solution, any cell stabilizing buffer plus sodium deoxycholate may be utilized in the practice of the invention.
The concentration of magnesium ion tightly bound to the erythrocyte membranes was determined by using 5 mL portions of the approximately two day old blood sample and the stored erythrocyte suspension. After these portions were centrifuged as above and the supernatant fluids aspirated, the residues of cells were suspended four times in 15 mL portions of cold hemolyzing buffer (Tris Tris HCl 5 mM, sucrose 14 mM, pH 7.4) and centrifuged (15,000×g, 15 minutes). The supernatant fluids were removed by gentle aspiration. The decanting procedure was repeated as necessary to remove all of the dark red residue (Example 1). The penultimate residue was resuspended by gently pouring the hemolyzing buffer onto the residue and decanting the readily suspended cell membranes from the small, dark red, dense residue which adhered to the centrifuge tube. The final, nearly colorless residue of membranes was transferred and brought to a total volume of 25 mL in a volumetric flask using the hemolyzing buffer. These preparations of erythrocyte membranes were stored at 4° C. until the total protein contents were determined by the Bicinchoninic Acid procedure and the total magnesium contents determined by atomic absorption spectroscopy. From these values the concentrations of tightly bound magnesium in the cell membranes were expressed as nanograms of magnesium per 0.50 mg of membrane protein. This determination of the magnesium binding was repeated each day or so until the level of binding first ceased to decrease.
Preparations of aged erythrocytes in which the MgBD has been developed were used as soon as possible in incubations with normal blood plasma, and other magnesium containing fluids, in search of substances which could correct the MgBD (Example 7). […]

The subject of experiment [2] is erythrocytes from essential hypertensive patients. The experiment is described as follows: Remediation of magnesium binding defect in vitro, erythrocytes from essential hypertensive patients. The format is cell-based, human. As to conditions: incubated for 3 hrs. at 37° C. As for the experimental part:
The effect of the tetrapeptide (SEQ ID NO:2) and pentapeptide (SEQ ID NO:1) on the binding of magnesium by the erythrocyte membrane was ascertained by measuring the magnesium contents of ghosts after the erythrocytes from essential hypertensive patients and normal controls were incubated with one or both of the peptides. For this purpose, two 10 ml samples of heparinized blood from essential hypertensive subjects were utilized. After the plasma was separated from the erythrocytes, the erythrocytes were washed twice with 10 ml of cold erythrocyte wash and the peptides were then added to the erythrocytes from the hypertensive subjects and the mixtures were incubated for 3 hrs. at 37° C., chilled on ice and the erythrocyte ghosts were prepared and analyzed for magnesium and protein as described in Example 1.

The test system of experiment [3] is Sprague-Dawley rats. As to the kind of experiment: Systolic blood pressure after i.v. peptide, tail-cuff method, normotensive control rats. The format is in vivo, rat. The procedure:
(§1) In this procedure the systolic blood pressure was measured in conscious animals by using the photoelectric, tail-cuff, compression method as follows. The animal was placed in an incubator at 40° for twenty minutes in order to elevate its body temperature. The cuff, which was placed around the tail, included sensor which provided the pressure signal which was recorded onto a chart. After the pre-injection pressure was recorded, the animal was immediately injected through the tail vein with 168 uL of a freshly prepared solution of the tetrapeptide (SEQ ID NO:2) in normal saline.
(§2) In the initial experiments, the blood pressure was recorded at 5, 10, 30, 60 and 300 minutes after the administration of the tetrapeptide. There was no further decrease in the blood pressure after 10 minutes and the blood pressure returned to the pre-injection level within 60 minutes. Therefore, in further experiments, the blood pressure of each animal was recorded 10 minutes after the injection of the tetrapeptide.

Experiment [4] deals with SS/Jr rats. The experiment is described as follows: Tightly bound magnesium in erythrocyte membranes after i.v. tetrapeptide, hypertensive rats. Format: in vivo, rat. As to conditions: intravenous administration. As for the experimental part: (§3) The rats were allowed to rest for one day and then one-half of the SS/Jr and one-half of the Sprague-Dawley rats were injected as above with 3.0 ugm/kg of the tetrapeptide (SEQ ID NO:2). All of the rats were sacrificed by decapitation 30 minutes later and the blood from each rat was collected in a centrifuge tube containing sufficient heparin to prevent clotting. The blood samples were centrifuged (1,000×g, 20 minutes) at 5° C. and the individual plasma layers were removed and frozen. The residues of erythrocytes were suspended three times in cold, normal saline and then were hemolyzed by the addition of 15 mL of cold hemolyzing buffer (10 mM Tris Tris HCl, pH 7.4). This buffer was then used in the isolation of the erythrocyte membranes from these hemolysates and in the determination of their total magnesium and protein contents as described above.

The subject of experiment [5] is Sprague-Dawley rats. The experiment is described as follows: Plasma glucose (anthrone method) after i.v. tetrapeptide, Sprague-Dawley rats. The format is in vivo, rat. As to conditions: 3.0 ugm/kg i.v., 30 minutes. The procedure:
as §3
(§4) The glucose concentrations in the reserved plasma samples were determined by the anthrone method (Rendina, 1971). The concentrations in the injected SS/Jr rats were not different from those of the SS/Jr rats which were not injected with the tetrapeptide. This was also the case with the Sprague-Dawley control rats. Thus, the values of the SS/Jr rats were combined and compared with the combined, control values of the Sprague-Dawley rats as follows: 149.2±7.5 (15) vs. 100.7±11.2 (4) mg/100 mL., P<0.01. […]

The subject of experiment [6] is SS/Jr rats. As to the kind of experiment: Systolic blood pressure after i.v. tetrapeptide, tail-cuff method, hypertensive rats. Format: in vivo, rat. As for the experimental part:
as §1, §2

In experiment [7] the test system is SS/Jr rats. As to the kind of experiment: Plasma glucose (anthrone method) after i.v. tetrapeptide, SS/Jr rats. Format: in vivo, rat. The settings on record: 3.0 ugm/kg i.v., 30 minutes. As for the experimental part:
as §3, §4

Experiment [8] deals with Sprague-Dawley rats. As to the kind of experiment: Tightly bound magnesium in erythrocyte membranes after i.v. tetrapeptide, normotensive control rats. As to conditions: intravenous administration. Format: in vivo, rat. The procedure:
as §3

In the next experiment the test system is normotensive subjects. As to conditions: Qu and Stuesse, 1990; cited from earlier work.

For the substance “9-11 Substance P: commercial preparation of amidated peptide derived from the C-terminal region of Substance P (Gly-Leu-Met-NH2; UniProt P20366 66-68, looked up, fragment) [reference compound]”, in [1], the “Magnesium Binding” value is 546 Nanograms of magnesium per 0.50 mg of membrane protein and 510 Nanograms of magnesium per 0.50 mg of membrane protein; the “measurable binding of magnesium ions to the erythrocyte membrane (in words)” value (“measurable binding of magnesium ions” for short) is “no measurable activity”.

As for “Phe-Phe-Gly-Leu-Met-NH2 (FFGLM-NH2; listed as Homo sapiens) [pentapeptide]”, the “binding of magnesium to erythrocyte membranes of hypertensive subjects after incubation (in words)” value in [2] is recorded as “returned to normal”. Further, the “effect on blood pressure of normotensive rats (in words)” value with Sprague-Dawley rats [3] is “had no effect on systolic blood pressure”. For the same substance, in experiment [1] (listed as 7-11 Substance P), the “Magnesium Binding” value is 886 Nanograms of magnesium per 0.50 mg of membrane protein and 866 Nanograms of magnesium per 0.50 mg of membrane protein. Also, in experiment [1], the “activity relative to Substance P in promoting magnesium binding / correcting the MgBD” value is “about four times as active as Substance P; also recorded: significantly more active than Substance P; also recorded: several fold more active than Substance P”, the “approximate ratios of binding activities” value was roughly 3.7 and the “measurable binding of magnesium ions” value is recorded as “promoted measurable binding”.

In the case of “Phe-Gly-Leu-Met-NH2 (FGLM-NH2; listed as Homo sapiens) [tetrapeptide]”, in the experiment with SS/Jr rats [4], the “correction of the magnesium binding defect in erythrocytes (in words)” value was “corrected; also recorded: corrects the magnesium binding defect”. The “binding of magnesium to erythrocyte membranes of hypertensive subjects after incubation (in words)” value in [2] is reported as “returned to normal”. The “plasma glucose concentration, injected versus not injected” value in the experiment with Sprague-Dawley rats [5] is “not different”. In addition, the “effect on blood pressure of normotensive rats (in words)” value with Sprague-Dawley rats [3] is “unaffected; also recorded: had no influence; also recorded: did not affect the blood pressures; also recorded: had no effect on systolic blood pressure”. Besides, the “effect on blood pressure of hypertensive rats (in words)” value in the experiment on SS/Jr rats [6] (SS/Jr rats, intravenous administration) is “fallen to control values; also recorded: corrected; also recorded: reduced the hypertensive blood pressure of the SS/Jr rats to the normal blood pressure of their controls; also recorded: reduced its systolic blood pressure from an elevated value of 210 mm Hg to the control value”. Further, in the experiment on SS/Jr rats [6] (after i.v. injection), the “time for blood pressure to fall to control values / no further decrease” value was no more than 10 min and the “time for blood pressure to return to the pre-injection level” value is no more than 60 min. For the same substance, the “Magnesium Binding” value in experiment [1] (listed as 8-11 Substance P) is 968 Nanograms of magnesium per 0.50 mg of membrane protein and 954 Nanograms of magnesium per 0.50 mg of membrane protein. Also, in experiment [1], the “activity relative to Substance P in promoting magnesium binding / correcting the MgBD” value was “about four times as active as Substance P; also recorded: significantly more active than Substance P; also recorded: several fold more active than Substance P”, the “approximate ratios of binding activities” value is recorded as roughly 4.6 and the “measurable binding of magnesium ions” value is “promoted measurable binding”. Besides, the “plasma glucose concentration, injected versus not injected” value with SS/Jr rats [7] is “not different”. Further, the “effect on erythrocyte magnesium binding of control rats (in words)” value with Sprague-Dawley rats [8] was “unaffected; also recorded: had no influence”.

In the case of “Arg-Pro-Lys-Pro-Gln-Gln-Phe-Phe-Gly-Leu-Met-NH2 [Substance P, reference compound]”, in the experiment on normotensive subjects, the “effect of intravenously injected Substance P on blood pressure” value was “the reduction in blood pressure resulted in lower than normal values”. In addition, in experiment [1], the “approximate ratios of binding activities” value was roughly 1.1 and the “measurable binding of magnesium ions” value is reported as “promoted measurable binding”.

Turning to “1-9 Substance P: commercial preparation of amidated peptide derived from the N-terminal region of Substance P (RPKPQQFFG-NH2; UniProt P20366 58-66, looked up, fragment) [reference compound]”, in [1], the “Magnesium Binding” value was 500 Nanograms of magnesium per 0.50 mg of membrane protein and 490 Nanograms of magnesium per 0.50 mg of membrane protein; the “measurable binding of magnesium ions” value is given as “no measurable activity”.
